US6841682B2, “Heterocycles useful in the treatment of benign prostatic hyperplasia” (Janseen Pharmaceutica N.V., priority 1997, dated 2005)

Experiments:
[1] = molecular target: T1, α1d-AR (Homo sapiens, UniProt P25100); assay: radioligand ([125I]-HEAT) receptor binding assay, COS cell membranes, α1d-AR; settings: Tables A-J, [125I]-HEAT 50 pM
T1 construct: expressed in transfected cells; host or cells: COS cells (pcDNA3 vector, DEAE-dextran transient transfection); membrane preparation
T1 sequence (P25100 1-572): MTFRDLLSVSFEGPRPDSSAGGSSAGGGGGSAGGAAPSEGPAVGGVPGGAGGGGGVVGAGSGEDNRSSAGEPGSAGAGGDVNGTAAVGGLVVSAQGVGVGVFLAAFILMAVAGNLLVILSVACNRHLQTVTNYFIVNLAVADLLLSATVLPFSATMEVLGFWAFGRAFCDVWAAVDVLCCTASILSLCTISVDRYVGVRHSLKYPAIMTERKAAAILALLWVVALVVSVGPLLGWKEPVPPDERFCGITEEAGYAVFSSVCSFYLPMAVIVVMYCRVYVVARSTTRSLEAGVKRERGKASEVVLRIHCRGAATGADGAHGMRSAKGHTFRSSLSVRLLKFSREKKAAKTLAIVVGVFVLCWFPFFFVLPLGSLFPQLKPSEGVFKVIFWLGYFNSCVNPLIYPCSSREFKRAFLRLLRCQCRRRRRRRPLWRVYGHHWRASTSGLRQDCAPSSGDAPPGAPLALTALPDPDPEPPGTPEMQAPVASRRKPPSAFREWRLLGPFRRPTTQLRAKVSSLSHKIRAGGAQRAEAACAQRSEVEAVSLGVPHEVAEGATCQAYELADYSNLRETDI
From the text: (§1) The first assay tested the ability of compounds of Formula I to bind to membrane bound receptors α1a-AR, α1b-AR and α1d-AR.
(§2) The DNA sequences of the three cloned human α1-AR subtypes have been published. […] We used published DNA sequence information to design-primers for use in RT-PCR amplification of each subtype to obtain cloned cDNAs. Human poly A+ RNA was obtained from commercially available sources and included hippocampus and prostate samples, sources which have been cited in the literature. For the primary screen a radio ligand binding assay was used which employed membrane preparations from cells expressing the individual cloned receptor cDNAs. Radiolabeled ligands with binding activity on all three subtypes (non-selective) are commercially available ([125I]-HEAT, [3H]-prazosin).
(§3) Each α1 receptor subtype was cloned from poly A+ RNA by the standard method of reverse transcription-polymerase chain reaction (RT-PCR). The following sources of polyA+ RNA were used for the cloning of the al receptor subtypes: α1a-AR, human hippocampus and prostate, α1b-AR, human hippocampus, α1d-AR, human hippocampus. The resulting cDNAs were cloned into the pcDNA3 mammalian expression vector (Invitrogen Corp., San Diego Calif.). Each DNA was sequenced for verification and to detect any possible mutations introduced during the amplification process. Any deviation in sequence from the published consensus for each receptor subtype was corrected by site-directed mutagenesis.
(§4) The three α1-AR subtypes (a, b, d) were transfected into COS cells using a standard DEAE-dextran procedure with a chloroquine shock. In this procedure, each tissue culture dish (100 mm) was inoculated with 3.5×10^6 cells and transfected with 10 μg of DNA. Approximately 72 hours post-transfection, the cells were harvested and COS membranes were prepared. Transfected COS cells from 25 plates (100 mm) were scraped and suspended in 15 mL of TE buffer (50 mM Tris-HCl, 5 mM EDTA, pH7.4). The suspension was disrupted with a homogenizer. It was then centrifuged at 1000×g for 10 minutes at 4° C. The supernatant was centrifuged at 34,500×g for 20 minutes at 4° C. The pellet was resuspended in 5 mL TNE buffer (50 mM Tris-HCl, 5 mM EDTA, 150 mM NaCl, pH7.4). The resulting membrane preparation was aliquoted and stored at −70° C. The protein concentration was determined following membrane solubilization with TritonX-100.
(§5) The ability of each compound to bind to each of the α1-AR subtypes was assessed in a receptor binding assay. [125I]-HEAT, a non-selective α1-AR ligand, was used as the radiolabeled ligand. Each well of a 96-well plate received: 140 μL TNE, 25 μL [125I]-HEAT diluted in TNE (50,000 cpm; final concentration 50 pM), 10 μL test compound diluted in DMSO (final concentration 1 pM-10 μM), […] COS cell membrane preparation expressing one of the three α1-AR subtypes (0.05-0.2 mg membrane protein). The plate was incubated for 1 hour at room temperature and the reaction mixtures were filtered through a Packard GF/C Unifilter filter plate. The filter plate was dried for 1 hour in a vacuum oven. Scintillation fluid ([…]) was added to each well, and the filter plate was counted in a Packard Topcount scintillation counter. Data was analyzed using GraphPad Prism software.
(§6) Tables A-J list the IC50 values expressed in nanomolar concentration for select compounds of the invention in all receptor subtypes.

[2] = test system: rat aorta tissues; assay: norepinephrine-induced contractile response of rat aorta tissue; assay type: tissue-based; settings: rat aortic rings, 37° C., pH 7.4, read-out: IC50, inhibition of contractile response in aortic tissue
From the text: The contractile responses of rat prostatic tissue and rat aorta tissues were examined in the presence and absence of antagonist compounds. As an indication of the selectivity of antagonism, test compound effects on vascular smooth muscle contractility (α1b-AR and α1d-AR) were compared to the effects on prostatic smooth muscle (α1a-AR). Strips of prostatic tissue and aortic rings were obtained from Long Evans derived male rats weighing 275 grams and sacrificed by cervical dislocation. The prostate tissue was placed under 1 gram tension in a 10 ml bath containing phosphate buffered saline pH 7.4 at 32° C. and isometric tension was measured with force transducers. The aortic tissue was placed under 2 grams tension in a 10 ml bath containing phosphate buffered saline pH 7.4 at 37° C. The ability of test compound to reduce the norepinephrine-induced contractile response by 50% (IC50) was determined.

[3] = molecular target: T2, α1b-AR (Homo sapiens, UniProt P35368); assay: radioligand ([125I]-HEAT) receptor binding assay, COS cell membranes, α1b-AR; settings: Tables A-J; [125I]-HEAT 50 pM, COS membranes; read-out: α1b IC50
T2 construct: expressed in transfected cells; host or cells: COS cells (pcDNA3 vector, DEAE-dextran transient transfection); membrane preparation
T2 sequence (P35368 1-520): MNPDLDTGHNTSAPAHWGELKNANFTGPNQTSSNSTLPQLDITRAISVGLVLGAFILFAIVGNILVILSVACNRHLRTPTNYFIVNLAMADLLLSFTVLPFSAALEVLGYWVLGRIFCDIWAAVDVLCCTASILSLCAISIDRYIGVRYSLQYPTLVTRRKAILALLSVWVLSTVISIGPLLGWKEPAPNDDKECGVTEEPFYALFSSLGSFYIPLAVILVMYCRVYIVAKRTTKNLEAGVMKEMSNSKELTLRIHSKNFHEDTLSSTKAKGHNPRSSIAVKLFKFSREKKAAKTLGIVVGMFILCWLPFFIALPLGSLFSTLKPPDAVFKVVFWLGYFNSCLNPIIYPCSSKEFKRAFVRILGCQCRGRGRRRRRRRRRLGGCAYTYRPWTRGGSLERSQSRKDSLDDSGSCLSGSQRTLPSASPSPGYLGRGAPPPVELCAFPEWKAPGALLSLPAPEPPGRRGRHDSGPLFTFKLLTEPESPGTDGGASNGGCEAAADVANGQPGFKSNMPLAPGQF
From the text: as §1, §2, §3, §4, §5, §6

Row | IC50 [1] [µM] | IC50 [2] [µM] | IC50 [3] [µM] | SMILES
1 | 0.211 | 13.5 | 8.5 | CC(C)Oc1ccccc1N1CCN(Cc2ncc(CN3CCCCC3=O)s2)CC1 [Compound 16]
2 | 0.177 | 31.9 | 3.92 | CC(C)Oc1ccccc1N1CCN(Cc2cc(CN3CCCCC3=O)n[nH]2)CC1 [Compound 3]
